Source: US20250145570A1, “DHODH INHIBITOR POLYMORPH” (Aslan Pharmaceuticals Pte Ltd, priority 2022, published 2025)
Entries after “also recorded” stand apart in the source; their conditions may differ. Read-outs that look alike come from different tables or passages of the source. One block for each compound: values may come before it.

Tests used:
Assay type in all cases: physicochemical
[1] = Particle size distribution (PSD)
[2] = Polymorph screening experiments (XRPD of returned solids); details: for XRPD after thermal cycling: 5-40° C., ~72 hours, THP and THF; for XRPD after 2-week slurry: 40° C.; for XRPD (Grind): fast evaporation at 100° C., post-grinding
Method: A solvent solubility screen was carried out on the farudodstat DSP polymorph (also referred to as CS-276-22 in the following examples) to determine its solubility in various solvents, and to gain an initial assessment of the polymorphic landscape. To ˜20 mg samples of predominantly amorphous farudodstat, aliquots (2×50 μL and then 100 μL) of the chosen solvents were added until dissolution was observed, or 2 mL had been added. The samples were manually agitated and heated to ˜40° C. in a block attached to a water bath in between each aliquot Clear solutions were uncapped and allowed to evaporate at room temperature. Any solids obtained from slurries and from evaporation were analysed by X-ray powder diffraction (XRPD).
16×20 mg of the farudodstat DSP polymorph sample was weighed into 2 mL bead mill vials and was milled for 1.5 hrs for amorphization. Next, 5 μL of appropriate solvents (see Table 6) were added to each sample. The samples were then bead milled using the following procedure: • 1. 2 stainless steel beads were added to each vial. • 2. 4500 rpm • 3. 10×90 s cycles • 4. 10 s hold between each cycle • 5. Repeated 4× to give 1 hr milling time
16×20 mg of farudodstat sample was first weighed into 2 mL bead mill vials and was milled to prepare amorphous material. To all the […] bead milled samples, appropriate solvents (see Table 6) were added in 100 μL aliquots until a mobile slurry was obtained without any dissolution observed. Between additions, the samples were stirred at 40° C. Samples were then stirred, and temperature cycled between 5-40° C. (0.1° C./min heating/cooling rate, 1 hour hold at each temperature) for ˜72 hours.
After 48 hours, samples were checked. If necessary, additional solids added. Non-mobile solid in solution samples were agitated using a spatula until a mobile slurry was obtained. Slurries were isolated by centrifugation ([…] nylon filters) and the solids analysed by XRPD. Post XRPD analysis, the XRPD plate was dried at 40° C. under vacuum for 48 hours and the solids reanalysed by XRPD to give an indication of form stability.
The saturate isolated from the previous thermal cycling experiment was left to evaporate at room temperature. Any solids returned from evaporation were analysed by XRPD.
16×20 mg of farudodstat sample was weighed into 2 mL bead mill vials and then milled to prepare amorphous material. To the bead milled sample, appropriate solvent was added in 100 μL aliquots until a mobile slurry was obtained without any dissolution observed. Between additions, the samples were stirred at 50° C. and 100° C. depending upon the boiling point of the solvent to dissolve the API in the solvent system. Samples were checked and slurries were isolated by centrifugation ([…] Nylon filters) and the saturates were put in an HPLC vials. Next, the vials were uncapped and were left to evaporate at 50° C. using a water bath. Finally, after the complete evaporation of solvent, the remaining solid were analysed by XRPD to check for appearance of any new patterns.
20 mg×5 of farudodstat sample was weighed into 2 ml bead mill vials and milled to prepare amorphous material. To the bead milled sample, appropriate solvent was added in 100 μL aliquots until a mobile slurry was obtained without any dissolution observed. Between additions, the samples were stirred at 100° C. to dissolve the API in the solvent system. Samples were checked and slurries were isolated by centrifugation (0.22 μm Nylon filters) and the saturates were put in an HPLC vials. The vials were then uncapped and were left to evaporate at 100° C. using a sand bath. After the complete evaporation of solvent, the remaining solid were analysed by XRPD to check for appearance of any new patterns.
20 mg×16 farudodstat sample was weighed into 2 ml bead mill vials and milled to prepare amorphous material. The appropriate solvent was added in 100 μL aliquots until a mobile slurry was obtained without any dissolution observed. […]

[3] = Form stability of DSP polymorph after processing/recrystallisation (XRPD, DSC, TGA)
Method: The farudodstat DSP polymorph was characterized using X-ray powder diffraction (XRPD), differential scanning calorimetry (DSC), thermogravimetric analysis, (TGA) and polarized light microscopy (PLM). Then it was subjected to various recrystallisation and analysis to confirm it was a DSP polymorph.
The suspensions of the DSP polymorph were prepared in different single solvents and mixed solvents (see Table 4 below). After this the samples were kept shaking for 72 hrs at 25° C. and 50° C. before they were centrifuged at 14,000 rpm for 10 mins until solid material was separated from the supernatant. The centrifuged samples were investigated by XRPD. The samples were dried under vacuum conditions at 40° overnight and investigated by XRPD, DSC and TGA if new XRPD patterns were found.
The farudodstat DSP polymorph was subject to processing or treated to test the physical stability of the form.
50 mg of the DSP polymorph was dissolved in the selected solvents (see Table 4) according to the solubility results to form saturated solutions. Next, the anti-solvent was slowly added into the solution under stirring until the precipitation formed. If there was no solid precipitation at room temperature, the sample was transferred into the freezer and stored at −20° C. After this, the slurries were stirred for 24 hours before they were centrifuged at 14,000 rpm for 10 mins, until solid material was separated from the supernatant. The centrifuged samples were investigated by XRPD. The samples were next dried under vacuum conditions at 40° C. overnight. If crystalline XRPD patterns were found, the samples were further investigated by XRPD, DSC and TGA.
Due to the high solubility of the DSP polymorph in some solvents (see Table 4), these solvents were chosen for the evaporation test. The solutions were prepared according to the solubility of the compound and were kept open at room temperature to let the solvents evaporate to form crystals. After evaporation was complete, the dried solids were collected and investigated by XRPD. Further tests were performed on DSC and TGA if new XRPD patterns were found.
10-30 mg of the original form of ASLAN003 was loaded into glass vials and placed in a thermomixer at either 60° C. or 50° C. After this, the selected solvents (see Table 4) were slowly added to the samples until the compound was completely dissolved. Next, the samples were transferred into the Crystal 16 crystallizer and the cooled to 0° C. at a rate of 0.5° C./min, before they were held at 0° C. for 24 hrs. If there was no solid precipitation at 0° C., the sample was transferred into a freezer at −20° C. […]
Two samples from Example 4: • 1. […] THF with water by antisolvent were further characterized after drying under vacuum conditions at 40° C. overnight and evaluated.

[4] = Approximate solubility by manual dilution combined with visual observation; details: thermodynamic from solid
Method: The approximate solubility was tested at room temperature by manual dilution combined with visual observation. The solubility of material in different single and mixed solvents was determined at the concentration once no particles of farudodstat could be visually observed in solvents.

Particle Size D10 [1]: 2.54 μm | Particle Size D50 [1]: 5.97 μm | Particle Size D90 [1]: 11.79 μm | Particle Size MV [1]: 6.70 μm
SMILES: COc1cccc(-c2cc(F)c(Nc3ncccc3C(=O)O)c(F)c2)c1 [1302NC0160A-01]

Particle Size D10 [1]: 32.34 μm | Particle Size D50 [1]: 160.95 μm | Particle Size D90 [1]: 238.22 μm | Particle Size MV [1]: 151.47 μm
SMILES: COc1cccc(-c2cc(F)c(Nc3ncccc3C(=O)O)c(F)c2)c1 [1412NC0160A-01]

Particle Size D10 [1]: 0.90 μm | Particle Size D50 [1]: 3.46 μm | Particle Size D90 [1]: 45.05 μm | Particle Size MV [1]: 13.27 μm
SMILES: COc1cccc(-c2cc(F)c(Nc3ncccc3C(=O)O)c(F)c2)c1 [1412NC0160A-02]

Weight loss on heating ([3]; after heating to 200° C.): minimum weight loss | Form found in screening experiments ([3]; all experiments of Table 4 (anti-solvent, grinding, crystallization, drying, milling, heating/cooling, slurry, evaporation)): predominant form | Stability on recrystallisation ([3]; recrystallized from a number of solvents): stable and reproducible | Polymorph stability ([3]; samples from THF evaporation and THF-water antisolvent, dried under vacuum at 40° C. overnight): stable | solubility ([4]; 11 organic solvents/mixed solvents, organic solvent or mixture, read-out: relatively poor solubility): < 10 mg/mL | solubility ([4]; organic solvent or mixture, Acetone:Dichloromethane (1:1), room temperature, read-out: Solubility): < 1.58 mg/mL | solubility ([4]; organic solvent or mixture, Acetone:Dichloromethane (3:1), room temperature, read-out: Solubility): < 1.9 mg/mL | solubility ([4]; organic solvent or mixture, CHCl3, room temperature, read-out: Solubility): < 0.57 mg/mL | solubility ([4]; organic solvent or mixture, Cyclohexane, room temperature, read-out: Solubility): < 0.49 mg/mL | solubility ([4]; organic solvent or mixture, Dichloromethane, room temperature, read-out: Solubility): < 0.6 mg/mL | solubility ([4]; organic solvent or mixture, Heptane, room temperature, read-out: Solubility): < 0.81 mg/mL | solubility ([4]; organic solvent or mixture, THF-Heptane (1:1), room temperature, read-out: Solubility): < 1.51 mg/mL | solubility ([4]; organic solvent or mixture, Toluene, room temperature, read-out: Solubility): < 0.53 mg/mL | solubility ([4]; organic solvent or mixture, some solvents, room temperature, read-out: High solubility): > 100 mg/mL | solubility ([4]; Water, room temperature, read-out: Solubility): < 0.53 mg/mL
SMILES: COc1cccc(-c2cc(F)c(Nc3ncccc3C(=O)O)c(F)c2)c1 [farudodstat DSP polymorph, 2-(3,5-difluoro-3′methoxybiphenyl-4-ylamino)nicotinic acid]
Overall stability of polymorph ([2]; conclusion of screening experiments): highly stable; also recorded: high stability

XRPD after room temperature evaporation ([2]; 1,1,1.3.3.3-Hexafluoro-2-Propanol, 2-Methyl THF, DMF, THF and THP): returned to Pattern 1 | XRPD of solids, solvent solubility assessment ([2]; 1,1-Dimethoxymethane, 1,4-Dioxane, 2-Ethoxyethanol, 1,1,1,3,3,3-Hexafluoro-2-Propanol, 2-Methyl THF, Benzyl Alcohol): remained amorphous | XRPD after fast evaporation at 50° C. ([2]; 1,1-dimethoxymethane and 2-propanol): showed amorphous pattern | XRPD after fast evaporation at 50° C. ([2]; 1,3-dioxlane, 1,4-dioxane): showed preferred orientation | XRPD after fast evaporation at 50° C. ([2]; 2-Ethoxyethanol, new peak at 21.1° 2θ): potential new pattern | XRPD of solids, solvent solubility assessment ([2]; 2-propanol, 48% Methanol:52% Water, 93% Ethanol:7% Water, 98.5% Ethanol:1.5% Water, Methanol, tert-Butylmethyl Ether): returned to Pattern 1 | XRPD after thermal cycling ([2]; 1,4-dioxane): remained semi-crystalline | XRPD after thermal cycling ([2]; solvents other than 1,4-dioxane): returned to Pattern 1 | XRPD after 2-week slurry ([2]; 93% Ethanol:7% Water, 48% Methanol:52% Water, 2-Propanol, 2-Methyl THF): returned to Pattern 1 | XRPD after anti-solvent addition + fast cool ([2]; MEK as anti-solvent in 1,4-dioxane, freezer 72 hrs): consistent with Pattern 1 | XRPD after fast evaporation at 50° C. ([2]; THP, THF, 2-methyl THF and 1,1,1.3.3.3-Hexafluoro-2-Propanol): returned to Pattern 1 | XRPD after solvent drop grinding ([2]; all 16 solvent systems): returned to pattern 1 | XRPD after bead milling ([2]; bead milling): less crystalline material | XRPD after fast cooling ([2]; crash cooling of 1,3-dioxolane saturate, freezer 72 hrs): preferred orientation of Pattern 1 | XRPD (Grind) ([2]; N,N′-Dimethylacetamide): Pattern 1 | XRPD (Grind) ([2]; N,N′-Dimethylformamide): Pattern 1 | XRPD after anti-solvent addition at 50° C. ([2]; water addition to all the 16 saturates): returned to Pattern 1 | XRPD after anti-solvent addition ([2]; water, room temperature, except 2-Methyl THF, 2-Propanol, 48% Methanol:52% Water, 93% Ethanol:7% Water, Benzyl Alcohol (clear solutions)): returned to Pattern 1
SMILES: COc1cccc(-c2cc(F)c(Nc3ncccc3C(=O)O)c(F)c2)c1 [farudodstat, 2-(3,5-difluoro-3′-methoxybiphenyl-4-ylamino) nicotinic acid]
XRPD after room temperature evaporation ([2]; 1,1-Dimethoxymethane, 1,3-Dioxolane, 1,4-Dioxane): showed preferred orientation of Pattern 1 but returned to Pattern 1 after grinding | XRPD after 2-week slurry then fast evaporation at 100° C. ([2]; 1,1-Dimethoxymethane, 1,3-Dioxolane, 2-Ethoxyethanol, 1,1,1.3.3.3-Hexafluoro-2-Propanol, DMA, DMF and NMP): showed preferred orientation. However, post-grinding returned these to Pattern 1 | XRPD after 2-week slurry ([2]; THF and THP): additional peaks with Pattern 1 at 8.1° 2θ (Pattern 1+) | XRPD after fast evaporation at 50° C. ([2]; DMF): pattern 1 with significant preferred orientation | XRPD after anti-solvent addition ([2]; acetone as anti-solvent, 1,1,1.3.3.3-Hexafluoro-2-Propanol): returned to Pattern 1 with additional peaks | XRPD of solids, solvent solubility assessment ([2]; evaporation of clear solution of THF and THP): showed preferred orientation, but later returned to Pattern 1 post grinding
